2 molecules from the NIST ThermoML archive (doi:10.1016/j.jct.2012.04.018) can be followed below.

± gives the expanded uncertainty stated by the source.

This series is described as follows: refractive index (other wavelength) (dimensionless). Conditions: 100 kPa, Liquid, Wavelength=632.8 nm, He-Ne laser.

For the molecule `N#Cc1ccccc1` [benzonitrile], the refractive index is, setting by setting: (280.98 K) 1.5309 ± 0.0003; (281.89 K) 1.5304 ± 0.0003; (283.78 K) 1.5296 ± 0.0003; (286.19 K) 1.5284 ± 0.0003; (288.04 K) 1.5275 ± 0.0003; (290.13 K) 1.5266 ± 0.0003.
As for `CCCCCCCCCCC` [undecane], the refractive index by setting is: (280.08 K) 1.4216 ± 0.0003; (281.97 K) 1.4209 ± 0.0003; (283.66 K) 1.4201 ± 0.0003; (285.71 K) 1.4192 ± 0.0003; (287.84 K) 1.4182 ± 0.0003; (290.47 K) 1.4171 ± 0.0003.

Usually refractive index stands for the speed of light in vacuum divided by its phase velocity in the sample.
